# Assay results taken from patent publication US9439432B2, “Phenylisoxazoline-based compound having herbicidal activity and use thereof” (MOGHU RESEARCH CENTER LTD, priority 2011, dated 2016).
# System: Soybean
# Test: Post-emergence treatment, phytotoxicity to soybean
# Format: in vivo
# Settings: post-emergence (about 3 leaf stage), 1,000 g/ha, 4 weeks after spraying, scale 0 to 10 (0: no effects, 10: complete death)
# Description: (§1) A rectangular plastic pot having a surface area of 300 cm^2 was filled with sandy loam soil and mixed bed soil which were mixed at a ratio of 1:1, and then, barnyardrass (Echinochloa crusgalli), large crabgrass (Digitaria sanguinalis), blackgrass (Alopecurus myosuroides), and annual bluegrass (Poa annua), which are grass weeds, were seeded thereto. In a pot that was prepared as described above, seeds of corn, soybean, cotton, wheat, and rice were seeded. The pots were irrigated, and one day after, chemicals were sprayed thereto. The spraying was performed by using a track sprayer (R&D Sprayer, USA) equipped with a Teejet 8002 (Spraying Systems Co., USA) nozzle, and a spraying amount was adjusted at 300 L/ha. A spraying solution was prepared by dissolving test materials or references in acetone and adding the same amount of 0.2%(v/v) tween 20 aqueous solution thereto. Application rates were 500, 250, 125, and 62.5 g/ha. The pots were placed in a greenhouse in which during day, the temperature was maintained at a temperature of 25 to 30° C., and during night, the temperature was maintained at a temperature of 15 to 25° C., and the pots were periodically irrigated. Four weeks after the spraying the test materials or References, effects and phytotoxicity of the respective weeds and crops were evaluated in a scale of 0 to 10 (0: no effects, 10: complete death), and results thereof are shown in Table 4 below.
# (§2) Pots containing crops and weeds were prepared in the same manner as in Example 7, and then, in the second week in which crops and weeds entered into about 3 leaf stage, the test materials and the references were sprayed thereto in the same manner as described above. The rates were 1,000, 500, 250, and 125 g/ha. Four weeks after the spraying of the test materials or the references, herbicidal efficacy and phytotoxicity to the respective weeds and crops were evaluated in a scale of 0 to 10 (0: no effects, 10: complete death).
row,SMILES,"Phytotoxicity, Soybean"
1,"Cc1ccccc1C1=NOC(C)(COCc2c(F)cccc2F)C1 (stereo not shown) [Compound 1, 5-((2,6-difluorobenzyloxy)methyl)-5-methyl-3-o-tolyl-4,5-dihydroisoxazole]",2

# System: Cotton
# Test: Post-emergence treatment, phytotoxicity to cotton
# Format: in vivo
# Settings: post-emergence (about 3 leaf stage), 1,000 g/ha, 4 weeks after spraying, scale 0 to 10 (0: no effects, 10: complete death)
# Description: as §1, §2
row,SMILES,"Phytotoxicity, Cotton"
1,"Cc1ccccc1C1=NOC(C)(COCc2c(F)cccc2F)C1 (stereo not shown) [Compound 1, 5-((2,6-difluorobenzyloxy)methyl)-5-methyl-3-o-tolyl-4,5-dihydroisoxazole]",2

# System: Wheat
# Test: Post-emergence treatment, phytotoxicity to wheat
# Format: in vivo
# Settings: post-emergence (about 3 leaf stage), 1,000 g/ha, 4 weeks after spraying, scale 0 to 10 (0: no effects, 10: complete death)
# Description: as §1, §2
row,SMILES,"Phytotoxicity, Wheat"
1,"Cc1ccccc1C1=NOC(C)(COCc2c(F)cccc2F)C1 (stereo not shown) [Compound 1, 5-((2,6-difluorobenzyloxy)methyl)-5-methyl-3-o-tolyl-4,5-dihydroisoxazole]",0

# System: Rice
# Test: Post-emergence treatment, phytotoxicity to rice
# Format: in vivo
# Settings: post-emergence (about 3 leaf stage), 1,000 g/ha, 4 weeks after spraying, scale 0 to 10 (0: no effects, 10: complete death)
# Description: as §1, §2
row,SMILES,"Phytotoxicity, Rice"
1,"Cc1ccccc1C1=NOC(C)(COCc2c(F)cccc2F)C1 (stereo not shown) [Compound 1, 5-((2,6-difluorobenzyloxy)methyl)-5-methyl-3-o-tolyl-4,5-dihydroisoxazole]",0

# System: Echinochloa crusgalli
# Test: Post-emergence treatment, herbicidal efficacy on barnyardgrass
# Format: in vivo
# Settings: post-emergence, 125 g/ha, 4 weeks after spraying, scale 0 to 10
# Description: as §1, §2
row,SMILES,"Herbicidal efficacy, Echinochloa crusgalli"
1,"Cc1ccccc1C1=NOC(C)(COCc2c(F)cccc2F)C1 (stereo not shown) [Compound 1, 5-((2,6-difluorobenzyloxy)methyl)-5-methyl-3-o-tolyl-4,5-dihydroisoxazole]",7

# Same assay, conditions: post-emergence, 250 g/ha, 4 weeks after spraying, scale 0 to 10
row,SMILES,"Herbicidal efficacy, Echinochloa crusgalli"
1,"Cc1ccccc1C1=NOC(C)(COCc2c(F)cccc2F)C1 (stereo not shown) [Compound 1, 5-((2,6-difluorobenzyloxy)methyl)-5-methyl-3-o-tolyl-4,5-dihydroisoxazole]",9

# Same assay, conditions: post-emergence, 500 g/ha, 4 weeks after spraying, scale 0 to 10
row,SMILES,"Herbicidal efficacy, Echinochloa crusgalli"
1,"Cc1ccccc1C1=NOC(C)(COCc2c(F)cccc2F)C1 (stereo not shown) [Compound 1, 5-((2,6-difluorobenzyloxy)methyl)-5-methyl-3-o-tolyl-4,5-dihydroisoxazole]",10

# Same assay, conditions: post-emergence, 1,000 g/ha, 4 weeks after spraying, scale 0 to 10
row,SMILES,"Herbicidal efficacy, Echinochloa crusgalli"
1,"Cc1ccccc1C1=NOC(C)(COCc2c(F)cccc2F)C1 (stereo not shown) [Compound 1, 5-((2,6-difluorobenzyloxy)methyl)-5-methyl-3-o-tolyl-4,5-dihydroisoxazole]",10

# System: Digitaria sanguinalis
# Test: Post-emergence treatment, herbicidal efficacy on large crabgrass
# Format: in vivo
# Settings: post-emergence, 125 g/ha, 4 weeks after spraying, scale 0 to 10
# Description: as §1, §2
row,SMILES,"Herbicidal efficacy, Digitaria sanguinalis"
1,"Cc1ccccc1C1=NOC(C)(COCc2c(F)cccc2F)C1 (stereo not shown) [Compound 1, 5-((2,6-difluorobenzyloxy)methyl)-5-methyl-3-o-tolyl-4,5-dihydroisoxazole]",6

# Same assay, conditions: post-emergence, 250 g/ha, 4 weeks after spraying, scale 0 to 10
row,SMILES,"Herbicidal efficacy, Digitaria sanguinalis"
1,"Cc1ccccc1C1=NOC(C)(COCc2c(F)cccc2F)C1 (stereo not shown) [Compound 1, 5-((2,6-difluorobenzyloxy)methyl)-5-methyl-3-o-tolyl-4,5-dihydroisoxazole]",9

# Same assay, conditions: post-emergence, 500 g/ha, 4 weeks after spraying, scale 0 to 10
row,SMILES,"Herbicidal efficacy, Digitaria sanguinalis"
1,"Cc1ccccc1C1=NOC(C)(COCc2c(F)cccc2F)C1 (stereo not shown) [Compound 1, 5-((2,6-difluorobenzyloxy)methyl)-5-methyl-3-o-tolyl-4,5-dihydroisoxazole]",10

# Same assay, conditions: post-emergence, 1,000 g/ha, 4 weeks after spraying, scale 0 to 10
row,SMILES,"Herbicidal efficacy, Digitaria sanguinalis"
1,"Cc1ccccc1C1=NOC(C)(COCc2c(F)cccc2F)C1 (stereo not shown) [Compound 1, 5-((2,6-difluorobenzyloxy)methyl)-5-methyl-3-o-tolyl-4,5-dihydroisoxazole]",10

# System: Poa annua
# Test: Post-emergence treatment, herbicidal efficacy on annual bluegrass
# Format: in vivo
# Settings: post-emergence, 125 g/ha, 4 weeks after spraying, scale 0 to 10
# Description: as §1, §2
row,SMILES,"Herbicidal efficacy, Poa annua"
1,"Cc1ccccc1C1=NOC(C)(COCc2c(F)cccc2F)C1 (stereo not shown) [Compound 1, 5-((2,6-difluorobenzyloxy)methyl)-5-methyl-3-o-tolyl-4,5-dihydroisoxazole]",5

# Same assay, conditions: post-emergence, 250 g/ha, 4 weeks after spraying, scale 0 to 10
row,SMILES,"Herbicidal efficacy, Poa annua"
1,"Cc1ccccc1C1=NOC(C)(COCc2c(F)cccc2F)C1 (stereo not shown) [Compound 1, 5-((2,6-difluorobenzyloxy)methyl)-5-methyl-3-o-tolyl-4,5-dihydroisoxazole]",8

# Same assay, conditions: post-emergence, 500 g/ha, 4 weeks after spraying, scale 0 to 10
row,SMILES,"Herbicidal efficacy, Poa annua"
1,"Cc1ccccc1C1=NOC(C)(COCc2c(F)cccc2F)C1 (stereo not shown) [Compound 1, 5-((2,6-difluorobenzyloxy)methyl)-5-methyl-3-o-tolyl-4,5-dihydroisoxazole]",9

# Same assay, conditions: post-emergence, 1,000 g/ha, 4 weeks after spraying, scale 0 to 10
row,SMILES,"Herbicidal efficacy, Poa annua"
1,"Cc1ccccc1C1=NOC(C)(COCc2c(F)cccc2F)C1 (stereo not shown) [Compound 1, 5-((2,6-difluorobenzyloxy)methyl)-5-methyl-3-o-tolyl-4,5-dihydroisoxazole]",10

# System: Alopecurus myosuroides
# Test: Post-emergence treatment, herbicidal efficacy on blackgrass
# Format: in vivo
# Settings: post-emergence, 125 g/ha, 4 weeks after spraying, scale 0 to 10
# Description: as §1, §2
row,SMILES,"Herbicidal efficacy, Alopecurus myosuroides"
1,"Cc1ccccc1C1=NOC(C)(COCc2c(F)cccc2F)C1 (stereo not shown) [Compound 1, 5-((2,6-difluorobenzyloxy)methyl)-5-methyl-3-o-tolyl-4,5-dihydroisoxazole]",2

# Same assay, conditions: post-emergence, 250 g/ha, 4 weeks after spraying, scale 0 to 10
row,SMILES,"Herbicidal efficacy, Alopecurus myosuroides"
1,"Cc1ccccc1C1=NOC(C)(COCc2c(F)cccc2F)C1 (stereo not shown) [Compound 1, 5-((2,6-difluorobenzyloxy)methyl)-5-methyl-3-o-tolyl-4,5-dihydroisoxazole]",8

# Same assay, conditions: post-emergence, 500 g/ha, 4 weeks after spraying, scale 0 to 10
row,SMILES,"Herbicidal efficacy, Alopecurus myosuroides"
1,"Cc1ccccc1C1=NOC(C)(COCc2c(F)cccc2F)C1 (stereo not shown) [Compound 1, 5-((2,6-difluorobenzyloxy)methyl)-5-methyl-3-o-tolyl-4,5-dihydroisoxazole]",7

# Same assay, conditions: post-emergence, 1,000 g/ha, 4 weeks after spraying, scale 0 to 10
row,SMILES,"Herbicidal efficacy, Alopecurus myosuroides"
1,"Cc1ccccc1C1=NOC(C)(COCc2c(F)cccc2F)C1 (stereo not shown) [Compound 1, 5-((2,6-difluorobenzyloxy)methyl)-5-methyl-3-o-tolyl-4,5-dihydroisoxazole]",9

# System: grass weeds including barnyardrass, large crabgrass, and annual bluegrass
# Test: Pre-emergence treatment, grass weeds overall
# Format: in vivo
# Settings: relative to reference compounds
# Description: as §1
row,SMILES,efficacy stronger than the References
1,"Cc1ccccc1C1=NOC(C)(COCc2c(F)cccc2F)C1 (stereo not shown) [Compound 1, 5-((2,6-difluorobenzyloxy)methyl)-5-methyl-3-o-tolyl-4,5-dihydroisoxazole]",about 8 times

# System: barnyardgrass, large crabgrass, and annual bluegrass
# Test: Post-emergence treatment, grass weeds overall
# Format: in vivo
# Settings: 250 g/ha
# Description: as §1, §2
row,SMILES,"suppression of barnyardgrass, large crabgrass, and annual bluegrass"
1,"Cc1ccccc1C1=NOC(C)(COCc2c(F)cccc2F)C1 (stereo not shown) [Compound 1, 5-((2,6-difluorobenzyloxy)methyl)-5-methyl-3-o-tolyl-4,5-dihydroisoxazole]",greatly suppressed
